pKi: −log10 of the molar value.
What was measured:
PKCδ-GFP fusion protein = test: PKCδ-GFP translocation assay in living CHO-k1 cells (confocal microscopy); format: cell-based, Chinese hamster; settings: for concentration* (minimum effective concentration required to induce translocation of PKC-GFP to the membrane) / % Translocation: CHO-k1 cells; for % Translocation: maximum translocation of PKCδ-GFP to the plasma membrane at the concentration printed in the same cell, SUW212: only brief translocation observed
Experimental: (§1) Because a prerequisite for PKC pathway involvement is binding to PKC, compounds were initially evaluated for PKC affinity in a cell-free competitive binding assay with tritiated phorbol dibutyrate ([^3H]-PDBu). Assays were performed with representative members of both the conventional (PKCα) and novel (PKCδ) PKC families. Subsequently, compounds were assayed for PKC activation in living cells using an isoform translocation assay.
Chinese hamster ovary factor K1 (CHO-k1, ATCC) cells were cultured in F-12 Kaighn's media (Hyclone, 10% fetal bovine serum, 1% penicillin/streptomycin added, referred to as F-12+/+ below) at 37° C. in an incubator (5% CO2). Cell cultures were maintained by splitting cells 1:3 when they reached ˜75-100% confluence (every 2-3 days) as follows:
1 mL of the cell suspension was then added to 9 mL of fresh F-12+/+ and the sample was sub-cultured until reaching confluence (˜2-3 days).
Cells were counted using a Countess II Automated Cell Counter (Fisher). The cell suspension was diluted to 240,000 cells/mL with fresh F-12+/+ and 2.5 mL of this diluted stock was added to one well in a 6-well plate. The cells were then cultured for 24 hours.
F-12+/+ was aspirated and cells were washed with F-12−/−. 2 mL of fresh F-12−/− was then added to each well, taking care not to disturb adherent cells. For each well of CHO-k1 cells, 12.5 μL Lipofectamine 2000 reagent (Invitrogen) was added to 250 μL Opti-MEM reduced serum media (Invitrogen) in a polypropylene tube and incubated for 20 minutes at RT. Meanwhile, for each well, 4 μg of PKCδ-GFP pDNA and 250 μL Opti-MEM reduced serum media was added to a separate polypropylene tube. 250 μL of the Lipofectamine 2000 suspension was added to the DNA suspension and the solution incubated for 30 minutes at RT. 500 μL of the Lipofectamine/DNA suspension was added to the respective wells of the 6-well plate. The cells were then incubated at 37° C. (5% CO2) for ˜24 hrs.
F-12+/+ was aspirated and cells were washed with F-12−/−. 2.4 mL of fresh F-12−/− was then added to each well, taking care not to disturb adherent cells. A 4 μg aliquot of PKCδ-GFP pDNA was added to PBS (pH 5.5, final volume 100 μL). 5.6 μL of DA 13:11 (2 mM stock in DMSO) was then added to the DNA solution, and the mixture was gently mixed (by flicking) for 20 seconds, at which point it was added directly to the respective wells of the 6-well plate. The cells were then incubated at 37° C. (5% C02) for ˜24 hrs.
After incubation, the media was aspirated and cells were washed with PBS (2.0 mL) and trypsinized (500 μL). The cell suspension was then diluted with 2.0 mL F-12+/+. 200 μL aliquots were added to 3 wells of a Lab-Tek II 4-well chambered coverglass slide (Fisher), producing 4 slides in total, each with three wells of cells. The cell suspension was directly diluted with 600 μL of additional F-12+/+. The resulting samples were incubated for ˜24 hrs. prior to imaging.
Fluorescent images were obtained using a Leica SP8 White Light Confocal microscope and the Leica AF software package. Prior to analysis, media was aspirated and 800 μL of PBS (Hyclone, without Ca^2+ or Mg^2+) supplemented with glucose (10 mM) was added to each well of the chambered coverglass slide. Bryostatin and bryostatin analogs were diluted to the appropriate concentration in 200 μL of 10 mM glucose in PBS. Cells were located for imaging and data was recorded for three wells in parallel, imaging at predetermined positions in each well using adaptive focus control. Cells were imaged at 30 second intervals following the addition of compound (set to t=0) for 20-40 minutes. Data were recorded at room temperature. Images were exported as .lif files and fluorescence intensity was analyzed using FIJI (NIH) software.

[1] = test system: CD22 surface expression in NALM6 cells; test: CD22 surface expression assay by flow cytometry; format: cell-based, human; settings: Homo sapiens, NALM-6; At 1 nM, relative to DMSO control; NALM6 cells; read-out: Fold increase CD22 expression
Experimental: Cell cultures were maintained between 4×10^5 and 3×10^6 cells/mL according to vendor instructions.
Cell suspension from a confluent T75 flask (Fisher) was transferred to a 15 mL falcon tube and centrifuged at 1100 rpm for 7 minutes. […] Cells were counted using a Countess II Automated Cell Counter (Fisher). […] 199 μL of this stock was added to 24 wells (enough for triplicate measurements for 8 different experimental conditions) in a 96-well plate. […] 1 μL of DMSO or the appropriate stock solution of compound in DMSO was added to each well. Cells were incubated for 24 hours, at which point the cell suspensions were transferred to 1.5 mL Eppendorf tubes and diluted with 1.0 mL of PBS (Hyclone, without Ca^2+ or Mg^2+). Samples were centrifuged at 2000 rpm for 5 min at RT. […] Cells were sub-cultured between 2×10^5 and 3×10^6 cells/mL in 24-well plates for an additional 24 hrs-7 days, at which point CD22 surface expression was assayed by flow cytometry.
Cells from one well were counted using a Countess II Automated Cell Counter (Fisher). ˜200,000-300,000 cells from each well were added to 1.5 mL Eppendorf tubes containing PBS (final volume ˜1.2 mL). The cell suspensions were centrifuged at 1500 rpm for 7 minutes at 4° C. The supernatant was aspirated, and the cell pellet was resuspended in 99 μL of pre-chilled FACS buffer (0.5% w/v BSA in PBS). […] Samples were then diluted with an additional 1.0 mL of FACS buffer and centrifuged at 1500 rpm for 7 minutes at 4° C. […] Cells were stained with DAPI and CD22 surface expression was analyzed using the FACScan Analyzer at the Stanford Shared FACS Facility. Data analysis was performed using FlowJo and Microsoft Excel.

PKCα = target: T1, PKCα (Homo sapiens, UniProt P17252); test: cell-free competitive PKC binding assay with [3H]-phorbol dibutyrate; settings: competition with [3H]-PDBu, recombinant human PKC isoform
T1 construct: purchased Invitrogen
Experimental: as §1
(§2) To a 50 mL polypropylene tube was added Tris-HCl (pH 7.4, 1 M, 1 mL), KCl (1 M, 2 mL), CaCl2) (0.1 M, 30 μL), and bovine serum albumin (BSA, 40 mg, Sigma-Aldrich). This mixture was diluted to 20 mL with deionized H2O and mixed gently. The buffer was stored on ice until use.
(§3) For every two assays, 3.5 mg phosphatidylserine (Avanti Polar Lipids, porcine, 25 mg/mL CHCl3 solution) was concentrated by removing chloroform under a stream of nitrogen followed by reduced pressure. The solid PS was suspended as vesicles in freshly prepared PKC binding assay buffer (3.5 mL) by sonicating six times for 30 sec, with a 30 sec rest between sonications (Branson Sonifier 250, power=2, 50% duty cycle). The resulting milky cloudy mixture (1 mg/mL) was stored on ice until use.
(§4) Assay PKC was prepared by dissolving a 4 μg aliquot of the indicated recombinant human PKC isoform (Invitrogen) into 11.6 mL of PKC binding assay buffer (this amount is sufficient for two assays). The diluted PKC was stored on ice for immediate use.
(§5) ^3H-PDBu (American Radiolabeled Chemicals, Inc.; 1 mCi/mL acetone solution; specific activity: 20 Ci/mmol) was diluted […] with DMSO. The resulting 500 nM stock solution was further diluted with DMSO to 30 nM.
(§6) Compound dilutions were prepared by serially diluting from a chosen “high” concentration by factors of 3 or 4.
(§7) To a polypropylene tube was added 3.3 mL of 1 mg/mL PS vesicles solution, 11 mL of PKC isoform solution, and 1.1 mL of 30 nM ^3H-PDBu solution were added. The resulting solution was vortexed to mix and stored on ice.
(§8) Materials: • Glass-fiber filters (Whatman GF/B) were prepared by soaking them in a solution of aqueous polyethyleneimine (10% by vol, 18 mL) in deionized water (600 mL) for ≥1 h. • 500 mL “rinsing buffer” of 20 mM Tris, pH 7.4 was cooled on ice for the duration of the incubation period and for the remainder of the assay.
Triplicate data points were obtained for each analog concentration. For each data point, 280 μL of “Master Mix” Solution and 20 μL of analog compound at a specified concentration were added to a polypropylene tube. […] Maximal ^3H-PDBu binding was assessed in triplicate by substitution of the analog compound with 20 μL DMSO. The solutions were vortexed to mix, incubated at 37° C. for 10 min, and incubated on ice for at least 30 min prior to filtration. Using a Brandel Harvester, the assay contents from each polypropylene tube were vacuum-filtered through polyethylenimine-soaked filters, washing with rinsing buffer (3×) and drying first under vacuum for 5 min and then under ambient conditions for ≥2 h. The resulting filters had circular perforations for each data point, which were removed with forceps and placed in a scintillation vial. Scintillation vials were filled with Bio-Safe II scintillation fluid (5 mL) and measured for radioactivity using a Beckman LS 6000SC scintillation counter. Counts per minute (cpm) were averaged for each triplicate dilution. The data were plotted—cpm vs. log(concentration)—using Prism® by GraphPad Software and an IC50 was determined using that program's built-in one-site competition least squares regression function. Ki values were calculated using the equation: Ki=IC50/(1+([3H−PDBu]/Kd)). The Kd of ^3H-PDBu for PKC isoforms was measured separately via saturation binding experiments under identical conditions.

PKCδ = target: T2, PKCδ (Homo sapiens, UniProt Q05655); test: as above; settings: competition with [3H]-PDBu, recombinant human PKC isoform
T2 construct: purchased Invitrogen
T2 sequence (Q05655 whole entry, canonical isoform): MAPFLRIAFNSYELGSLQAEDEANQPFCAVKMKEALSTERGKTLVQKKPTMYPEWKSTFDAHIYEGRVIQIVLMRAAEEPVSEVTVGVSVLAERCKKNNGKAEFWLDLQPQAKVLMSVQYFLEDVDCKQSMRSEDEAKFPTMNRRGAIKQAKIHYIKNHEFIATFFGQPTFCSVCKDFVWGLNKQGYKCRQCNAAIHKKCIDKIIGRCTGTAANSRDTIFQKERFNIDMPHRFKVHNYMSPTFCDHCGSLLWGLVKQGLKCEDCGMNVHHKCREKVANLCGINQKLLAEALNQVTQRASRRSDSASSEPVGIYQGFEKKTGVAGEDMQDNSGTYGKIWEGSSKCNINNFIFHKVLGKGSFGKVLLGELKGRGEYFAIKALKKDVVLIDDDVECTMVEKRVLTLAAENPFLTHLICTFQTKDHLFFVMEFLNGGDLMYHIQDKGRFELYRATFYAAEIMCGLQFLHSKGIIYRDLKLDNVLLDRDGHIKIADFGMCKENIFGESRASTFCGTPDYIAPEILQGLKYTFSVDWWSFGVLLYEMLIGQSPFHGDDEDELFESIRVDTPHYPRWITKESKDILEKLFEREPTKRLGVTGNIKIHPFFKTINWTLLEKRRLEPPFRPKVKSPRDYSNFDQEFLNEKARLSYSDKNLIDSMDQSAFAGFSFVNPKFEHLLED
Experimental: as §1, §2, §3, §4, §5, §6, §7, §8
Triplicate data points were obtained for each analog concentration. For each data point, 280 μL of “Master Mix” Solution and 20 μL of analog compound at a specified concentration were added to a polypropylene tube. […] Maximal ^3H-PDBu binding was assessed in triplicate by substitution of the analog compound with 20 μL DMSO. The solutions were vortexed to mix, incubated at 37° C. for 10 min, and incubated on ice for at least 30 min prior to filtration. Using a Brandel Harvester, the assay contents from each polypropylene tube were vacuum-filtered through polyethylenimine-soaked filters, washing with rinsing buffer (3×) and drying first under vacuum for 5 min and then under ambient conditions for ≥2 h. The resulting filters had circular perforations for each data point, which were removed with forceps and placed in a scintillation vial. Scintillation vials were filled with Bio-Safe II scintillation fluid (5 mL) and measured for radioactivity using a Beckman LS 6000SC scintillation counter. Counts per minute (cpm) were averaged for each triplicate dilution. The data were plotted—cpm vs. log(concentration)—using Prism® by GraphPad Software and an IC50 was determined using that program's built-in one-site competition least squares regression function. […] The Kd of ^3H-PDBu for PKC isoforms was measured separately via saturation binding experiments under identical conditions.

SMILES	concentration* (minimum effective concentration required to induce translocation of PKC-GFP to the membrane) (PKCδ-GFP fusion protein)	% Translocation (PKCδ-GFP fusion protein)	fold induction at 0.001 µM [1]	pKi (PKCα)	pKi (PKCδ)	cytosolic PKC translocated to the plasma membrane (PKCδ-GFP fusion protein; 200 nM, at 20 minutes)	sustained translocation of PKC (PKCδ-GFP fusion protein; at up to 1000 nM)
C=C1CC2C=CC(C)(C)C3(O)OC(CC(=CC(=O)OC)C3OC(=O)C#CCCCCC)CC(C(C)O)OC(=O)CC(O)CC3CC(OC(C)=O)C(C)(C)C(O)(CC(C1)O2)O3 (stereo not shown) [SUW200]	200 nM	70%	1.73	–	–	–	–
CCC/C=C/C=C/C(=O)O[C@H]1/C(=C/C(=O)OC)C[C@H]2C[C@H]([C@@H](C)O)OC(=O)C[C@H](O)C[C@@H]3C[C@H](OC(C)=O)C(C)(C)[C@](O)(C[C@@H]4C/C(=C\C(=O)OCc5ccccc5)C[C@H](/C=C/C(C)(C)[C@]1(O)O2)O4)O3 [SUW220]	1000 nM	50%	–	7.80	7.82	–	–
C=CCOC(=O)/C=C1\C[C@H]2C[C@]3(O)O[C@H](C[C@@H](O)CC(=O)O[C@@H]([C@@H](C)O)C[C@@H]4C/C(=C\C(=O)OC)[C@H](OC(=O)/C=C/C=C/CCC)[C@@](O)(O4)C(C)(C)/C=C/[C@@H](C1)O2)C[C@H](OC(C)=O)C3(C)C [SUW230]	200 nM	65%	–	8.38	8.03	–	–
CCCCCC#CC(=O)O[C@H]1/C(=C/C(=O)OC)C[C@H]2C[C@H]([C@@H](C)O)OC(=O)C[C@H](O)C[C@@H]3C[C@H](OC(C)=O)C(C)(C)[C@](O)(C[C@@H]4C[C@H](O)C[C@H](/C=C/C(C)(C)[C@]1(O)O2)O4)O3 [SUW204]	200 nM	25%	–	–	–	~25%	–
CCC/C=C/C=C/C(=O)O[C@H]1/C(=C/C(=O)OC)C[C@H]2C[C@H]([C@@H](C)O)OC(=O)C[C@H](O)C[C@@H]3C[C@H](OC(C)=O)C(C)(C)[C@](O)(C[C@@H]4C[C@H](OC(=O)CN(C)C)C[C@H](/C=C/C(C)(C)[C@]1(O)O2)O4)O3 [SUW211]	1000 nM	20%	–	7.01	7.57	–	did not achieve sustained translocation
